One block for each molecule: values may come before it.
How the values were obtained:
human pcCMT [1] = molecular target: T1, human pcCMT (Homo sapiens, UniProt O60725); assay: Carboxyl methylation of prenylcysteine analogs (AFC, AGGC) as defined substrates by the recombinant enzyme in COS-1 membranes; format: biochemical
T1 construct: The 3.6-kb full-length HL60 pcCMT cDNA and an 852-bp cDNA fragment comprising the ORF were subcloned into the eukaryotic expression vectors; expressed in transfected cells; host or cells: COS-1 cells (pCDM8 vector, DEAE-dextran transfection); light membranes after nitrogen cavitation
T1 sequence (O60725 whole entry, the tested form may be a part): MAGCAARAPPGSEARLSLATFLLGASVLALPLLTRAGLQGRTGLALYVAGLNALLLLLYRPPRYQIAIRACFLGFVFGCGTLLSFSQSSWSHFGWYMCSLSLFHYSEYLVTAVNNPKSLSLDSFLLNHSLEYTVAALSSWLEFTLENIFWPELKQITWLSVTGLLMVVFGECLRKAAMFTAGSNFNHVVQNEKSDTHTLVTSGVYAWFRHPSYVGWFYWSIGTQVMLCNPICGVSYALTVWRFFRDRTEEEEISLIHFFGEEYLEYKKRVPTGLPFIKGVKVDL
Description: (§1) Prenylcysteine Carboxyl Methyltransferase Assays: COS-1 cells transfected with HL60 pcCMT or vector alone were harvested at 48 hours with 5 mM EDTA and subjected, in parallel with human neutrophils, to nitrogen cavitation and discontinuous sucrose density centrifugation as described (Philips et al, 1991). Light membranes were assayed for pcCMT activity qualitatively by S-adenosyl-L- [methyl-^3H]methionine labeling (SDS-polyacrylamide gel electrophoresis and flurography) of Rho GTPases partially purified from neutrophil cytosol and quantitatively by carboxyl methylation of N-acetyl-S-trans,trans-farnesyl-L-cysteine (AFC) (heptane partition, alkaline hydrolysis, and measurement of vapor phase [^3H]methanol) as described (Philips et al, 1995)
(§2) To determine whether the HL60 STE14 protein homolog has prenylcysteine carboxyl methyltransferase activity, the cDNA was subcloned into a mammalian expression vector PCDM8 (Invitrogen, San Diego, Calif.) and transiently overexpressed ectopically in COS-1 cells. Membranes prepared from these cells were used as a source of recombinant enzyme. Farnesylated Ras GTPases require detergent for extraction from membranes. Therefore, geranylgeranylated neutrophil cytosolic Rho accessory protein, guanine nucleotide dissociation inhibitor (GDI), were utilized as endogenous substrates in an in vitro assay (FIGS. 5A and 5B). Untransfected COS-1 cell membranes had little pcCMT activity toward Rho proteins compared with that of membranes derived from human neutrophils (FIG. 5A). Transfection with the HL60 cDNA conferred pcCMT activity toward Rho GTPases on COS-1 membranes, and this activity was blocked by the competitive pcCMT inhibitor, AFC, with an ED50 (10 μM) identical to that for endogenous neutrophil pcCMT. Carboxyl methylation of Rac2 and RhoA by HL60 pcCMT-transfected COS-1 cell membranes was enhanced by guanosine 5′-3-O-(thio)triphosphate (GTPγS) (FIG. 5B), similar to the activity observed in neutrophil membranes (Philips et al, 1993). Carboxyl methyltransferase activity was quantitated in membranes of COS-1 cells transfected with HL60 pcCMT using prenylcysteine analogs as defined substrates (Philips et al, 1995). Untransfected COS-1 cell membranes had […] (n=5) of the pcCMT specific activity of neutrophil membranes toward AFC.
The Michaelis constants of the recombinant enzyme, Km=7 μM for AFC and 0.6 μM for AGGC, were similar to those for the endogenous neutrophil enzyme (Pillinger et al, 1994). Thus, the cDNA described above encodes authentic human myeloid pcCMT.

human pcCMT [2] = molecular target: T1, human pcCMT; assay: Carboxyl methylation of Rho GTPases by COS-1 cell membranes expressing human pcCMT (S-adenosyl-L-[methyl-3H]methionine labeling, SDS-PAGE, fluorography); format: biochemical; details: HL60 pcCMT-transfected COS-1 cell membranes; 10 μM
Description: FIGS. 5A and 5B show the carboxyl methylation of ras-related GTPases by COS-1 cell membranes expressing ectopic human pcCMT. In FIG. 5A, neutrophil cytosol (CS) containing a mixture of Rho family proteins complexed with Rho-GDI (lanes 2, 3, 6, 7, 10, 11) or RhoA-GDI complexes partially purified from CS (lanes 4, 8, 12) were incubated with the methyl donor S-adenosyl-L-[methyl-^3H]methionine and light membranes derived from nitrogen cavitation of human neutrophils (lanes 1-4) or COS-1 cells transiently transfected with either human pcCMT (lanes 5-8) or vector alone (lanes 9-12). In some reactions (lanes 3, 7, 11) a competitive pcCMT inhibitor, AFC, was included. Reaction products were analyzed by SDS-PAGE and fluorography. The position of carboxyl methylated […] is indicated as is the position of protein phosphatase 2a (PP2a) that is methylated on a C-terminal leucine by an enzyme unrelated to pcCMT (Lee et al, 1993). […] Carboxyl methyltransferase activity was quantitated in membranes of COS-1 cells transfected with HL60 pcCMT using prenylcysteine analogs as defined substrates (Philips et al, 1995). […]

[3] = Prenylcysteine carboxyl methyltransferase activity of membranes, AFC as substrate; format: biochemical, human; details: for Increase: relative to COS + Vector; for Relative enzymatic activity: COS cell membranes, Vector Alone = 1
Excerpt: Expression of Recombinant pcCMT: The 3.6-kb full-length HL60 pcCMT cDNA and an 852-bp cDNA fragment comprising the ORF were subcloned into the eukaryotic expression vectors pCDM8 and pcDNA3.1 (Invitrogen, Carlsbad, Calif.). Myc-tagged pcCMT was made by adding a sequence encoding the 10-amino acid epitope of c-Myc recognized by monoclonal antibody 9E10 to the C terminus of pcCMT using patch PCR and subcloning into pcDNA3.1. pcCMT tagged at the C terminus with GFP was generated by subcloning the pcCMT ORF into the expression vector pGFP-N3 (Clontech). For pcCMT enzymatic assays, COS-1 cells were grown in 10-cm dishes and transfected with pcCMT with DEAE-dextran as described (Aruffo et al, 1987). For fluorescence microscopy, exponentially growing COS-1, CHO, and NIH3T3 cells were plated the day prior to transfection at 50-60% confluence and transfected with 2 μg of DNA using LipofectAMINE (Life Technologies, Inc.), Gaithersburg, Md.) according to the manufacturer's instructions.
as §1, §2

Δste14 yeast strain = assay: ste14 complementation, patch mating test; format: cell-based, S. cerevisiae; details: cDNA expressed from a plasmid
Description: S. cerevisiae Strains, Growth, and ste14 Complementation: Complete (YEPD), synthetic (SD), and synthetic dropout media were prepared as described previously (Michaelis et al, 1988), except that dropout medium lacked cysteine. All experiments were performed at 30° C. Yeast transformations were carried out by either the lithium acetate method (Ito et al, 1983) or the Elble method (Elble, 1992). The ste14 deletion strains used are SM1188 (MATαΔste14-3:: TRP1 trp1 leu2 ura3 his4 can1) and SM1639 (MATαΔste14-4:: URA3 trp1 leu2 his4 can1) (Sapperstein et al, 1994). Plasmid expression of STE14 protein was accomplished by pSM1237 (CEN URA3 STE14). Human pcCMT was expressed in yeast by subcloning the HL60 pcCMT ORF into the BamHI SalI sites of the yeast expression plasmid pG1 (2μ TRP1) that utilizes a GPD promoter and a PGK transcription terminator and polyadenylation signal (Schena et al, 1991). The resulting construct was designated pG1-hCMT (2μ TRP1 hCMT). Patch mating tests were carried out essentially as described previously (Michaelis et al, 1988). briefly, patches of MATα cells grown on selective media were replica plated onto a lawn of the […], SM1068 (lys1), that had been spread on an SD plate. […]
To determine whether human pcCMT could substitute in vivo for the S. cerevisiae pcCMT, STE14 protein, a complementation analysis was done using mating as a biological readout. […]

Molecule: COS + pcCMT ORF: membranes of COS cells transfected with pCDM8 + pcCMT ORF only
Activity ([3]; Experiment 2): 84.6 pmol/mg/min
Increase ([3]; Experiment 2): 45 fold
Activity ([3]; Experiment 3): 90.7 pmol/mg/min
Increase ([3]; Experiment 3): 53 fold

Molecule: HL60 pcCMT: human prenylcysteine carboxyl methyltransferase, 284 amino acid protein of SEQ ID NO:5, ectopically expressed in COS-1 cell membranes
Relative enzymatic activity ([3]; Experiment #1): 14.1
Relative enzymatic activity ([3]; Experiment #2): 5.4
Relative enzymatic activity ([3]; Experiment #3): 19.6
Specific AFC carboxyl methyltransferase activity ([3]; transfected COS-1 membranes, n=5, p<0.0005): 74.5 ± 6.8 pmol/mg/min
Increase in specific AFC carboxyl methyltransferase activity ([3]; transfection of COS-1 cells): 18-53 fold
Restoration of mating phenotype (Δste14 yeast strain): partially restored the mating phenotype

Molecule: PcCMT-Myc: pcCMT with the 10-amino acid c-Myc epitope added at the C terminus
Relative enzymatic activity ([3]; Experiment #1): 11.1

Molecule: pcCMT-FLAG: pcCMT with the 8-amino acid FLAG epitope as C-terminal extension
Relative enzymatic activity ([3]; Experiment #2): 5.45
Relative enzymatic activity ([3]; Experiment #3): 18.5

The remaining lines, values ahead:

Increase in carboxyl methylation of the substrate on pcCMT transfection (human pcCMT [1]; n=2): 18 fold
Km (human pcCMT [1]; recombinant enzyme, read-out: Michaelis constant Km): 0.6 µM
Molecule: CC(=O)N[C@@H](CSC/C=C(\C)CC/C=C(\C)CC/C=C(\C)CCC=C(C)C)C(=O)O (stereo in doubt) [AGGC, N-acetyl-S-all-trans-geranylgeranyl-L-cysteine]

Effect on carboxyl methylation of Rac2 and RhoA (human pcCMT [2]): enhanced
Molecule: Nc1nc2c(ncn2[C@@H]2O[C@H](COP(=O)(O)OP(=O)(O)OP(O)(O)=S)[C@@H](O)[C@H]2O)c(=O)[nH]1 [GTPγS, guanosine 5′-3-O-(thio)triphosphate]

Activity ([3]; Experiment 1): 62.7 pmol/mg/min
Increase ([3]; Experiment 1): 12 fold
Activity ([3]; Experiment 2): 17.7 pmol/mg/min
Increase ([3]; Experiment 2): 9 fold
Activity ([3]; Experiment 3): 35.3 pmol/mg/min
Increase ([3]; Experiment 3): 21 fold
Molecule: COS + pcCMT cDNA: membranes of COS cells transfected with pCDM8 + pcCMT full-length cDNA

Reference: patent US6432403B1, “Antibodies to polypeptides having prenylcysteine carboxyl methlytransferase activity or inhibiting activity” (New York University, priority 1997, dated 2002)
